From US4762848A, “1,3-thiazoles and their use as immunomodulators” (Hoechst Aktiengesellschaft, priority 1985, dated 1988)

Experiments:
DTH reaction (SRBC) = experiment: Stimulation of the DTH reaction, relative to the compound from Example 7; assay type: in vivo, NMRI mice; details: 200 mg/kg, 1 × i.p. day 0; Example 7 = 100%
Experimental: Either 10^6 or 10^9 red blood cells from sheep were administered intravenously to each animal in groups of 5 female NMRI mice weighing 18-20 g. Sheep erythrocytes are regarded in immunology as a standard test substance (antigen) for the induction of cellular and humoral immune reactions. In particular, this test provides information about the functioning of the T-cell-dependent component (T-helper cells) of the immune system. The test substance obtained as in exemplary embodiment 7 ([2-(3-carboxy-1-propylthio)-4 -methyl-1,3-thiazol-5-yl]acetic acid) was administered intraperitoneally and perorally, respectively, […], each animal received 2×10^8 sheep erythrocytes injected into the underside of the foot and, 24 hours later, the swelling of the foot was measured. The foot swelling is induced by a skin reaction of the delayed type (delayed type hypersensitivity, DTH) and is, as is known to the expert, a measure of the cellular immune response (Collins, F. M. and Mackaness, G. B., J. Immunol. 101, 830-845, 1968). The results compiled in Table 1 illustraste that there is an increase in the cellular immune response owing to the administration of the subst nce obtained according to the invention, for example after imnunization with 10^6 or 10^9 sheep erythrocytes. An optimum stimulation can be observed in this experimental design on administration of 20-40 mg/kg test substance.
NMRI mice were treated with the substances according to the invention as described in experiment 1.
The DTH reaction was checked as a test to determine the immunostimulation.
It can be seen from the table that the DTH reaction in the animals pretreated with the test substances is more pronounced than in the corresponding control animals.

Candida albicans = experiment: Therapeutic treatment of chronic Candida albicans infection; assay type: in vivo, female Balb/c mice infected with Candida albicans; details: for Urine infected with C. albicans d19 / Urine infected with C. albicans d24 / Kidneys infected with C. albicans / Necrotic kidneys: days 3-15; for Urine infected with C. albicans d19: day 19; for Urine infected with C. albicans d24: day 24; for Kidneys infected with C. albicans / Necrotic kidneys: day 26
Experimental: Increase in the Resistance of Balb/c Mice to Infection with Candida albicans
(a) Therapeutic treatment
For the therapeutic treatment of chronic Candida albicans infection, female Balb/c mice (16/group) were infected intravenously with Candida albicans (2.5×10^5 cfu/mouse) (day 0). After the infection had taken place, the animals were treated intraperitoneally on 13 consecutive days (days 3-15) with the test substance obtained as in Example 7; the concentrations were 0.5, 2.0, 5.0, 10.0, 30.0 and 60.0 mg/kg. The control animals received administrations of physiological saline solution. Urine was collected from the animals on days 19 and 24, and the organism count was determined. On day 26, the animals were sacrificed, and the organism count and the necroses in the kidneys were determined.

macrophages = experiment: Stimulation of macrophage activity (exocytosis / lysosomal enzyme activity), relative to the compound from Example 7; assay type: in vivo, NMRI mice; details: 100 mg/kg, 1 × i.p. day 0; relative to Example 7 = 100%
Experimental: This entailed investigation of the effect of the test substance obtained as in exemplary embodiment 7 on the stimulation of peritoneal macrophages in 6-8 week old NMRI mice. Female mice received the test substance in parenteral or oral doses of 25 mg/kg, 50 mg/kg, 100 mg/kg and 200 mg/kg. Buffered saline solution was administered to a control group. The mice were sacrificed three days after the injections, and the peritoneal macrophages of the animals were examined for their state of activation. The secretion of the lysosomal enzymes (β-galactosidase, β-glucuronidase and N-acetyl-β-D-glucosaminidase) was determined as one measure of macrophage activation. […] The level of oxidative metabolism in macrophages is taken as another measure of their state of activation. This activity is measured with the assistance of a biolumate by determination of the chemiluminescence.
For this purpose, either 3×10^6 macrophages were cultured with 1 ml of TC 199 culture medium in Petri dishes of diameter 30 mm or 10^6 macrophages were cultured with 100 μl of medium in round-bottomed polyethylene tubes (for determination of the chemiluminescence), with 5% CO2 and at 37° C.
After incubation for one hour, the cultures were washed to remove floating cells. The chemiluminescence (tube culture) was then determined directly, whereas the Petri dishes were incubated for a further 24 hours at 37° C. and then the enzyme and pinocytosis activities in the cultures were determined.
NMRI mice were treated with the compounds according to the invention as described in experiment 2.
The macrophage function (chemiluminescence and enzyme activity) was checked as a test to determine the immunostimulation.
It can be seen from the table that in comparison with macrophages from untreated animals, the chemiluminescence reaction of these cells was also greatly stimulated by all the test substances, and their content of lysosomal enzymes was markedly raised.

Cc1nc(SCCCC(=O)O)sc1CC(=O)O [Example 7, [2-(3-Carboxy-1-propylthio)-4-methyl-1,3-thiazol-5-yl]acetic acid]
DTH reaction (SRBC), relative activity (DTH reaction (SRBC)): 100% | Urine infected with C. albicans d19 (Candida albicans; 0.5 mg/kg i.p.): 0% | Urine infected with C. albicans d24 (Candida albicans; 0.5 mg/kg i.p.): 6% | Kidneys infected with C. albicans (Candida albicans; 0.5 mg/kg i.p.): 27% | Necrotic kidneys (Candida albicans; 0.5 mg/kg i.p.): 27% | Urine infected with C. albicans d19 (Candida albicans; 2.0 mg/kg i.p.): 6% | Urine infected with C. albicans d24 (Candida albicans; 2.0 mg/kg i.p.): 6% | Kidneys infected with C. albicans (Candida albicans; 2.0 mg/kg i.p.): 13% | Necrotic kidneys (Candida albicans; 2.0 mg/kg i.p.): 7% | Urine infected with C. albicans d19 (Candida albicans; 5.0 mg/kg i.p.): 0% | Urine infected with C. albicans d24 (Candida albicans; 5.0 mg/kg i.p.): 7% | Kidneys infected with C. albicans (Candida albicans; 5.0 mg/kg i.p.): 27% | Necrotic kidneys (Candida albicans; 5.0 mg/kg i.p.): 47% | Urine infected with C. albicans d19 (Candida albicans; 10.0 mg/kg i.p.): 7% | Urine infected with C. albicans d24 (Candida albicans; 10.0 mg/kg i.p.): 21% | Kidneys infected with C. albicans (Candida albicans; 10.0 mg/kg i.p.): 29% | Necrotic kidneys (Candida albicans; 10.0 mg/kg i.p.): 43% | Urine infected with C. albicans d19 (Candida albicans; 60.0 mg/kg i.p.): 13% | Urine infected with C. albicans d24 (Candida albicans; 60.0 mg/kg i.p.): 13% | Kidneys infected with C. albicans (Candida albicans; 60.0 mg/kg i.p.): 38% | Necrotic kidneys (Candida albicans; 60.0 mg/kg i.p.): 31% | dose for optimal action in chronic Candida albicans infection (Candida albicans; therapeutic i.p. treatment, mice): 0.5 to 5.0 mg/kg | Macrophage activity: Exocytosis, relative activity (macrophages): 100%
